Reference: patent US20220233566A1, “NOVEL CARBONATE COMPOUND HAVING PYRROLOPYRIMIDINE SKELETON OR PHARMACEUTICALLY ACCEPTABLE SALT THEREOF” (TAIHO PHARMACEUTICAL CO., LTD., priority 2019, published 2022)

What was measured:
[1] = Presence of prodrug in mouse and absorbency (plasma AUC after oral administration); assay type: in vivo; details: male, Balb/cA, mouse, 17 umol/kg, mice, 17 μmol/kg, administered compound itself in plasma, read-out: AUC0-6hr
Experimental: The dosage amounts of the compounds of Comparative Examples 1 to 5 and Examples 1 to 26 are those (mole/10 mL/kg) shown in Tables. Solutions for administration were prepared with an 0.5% aqueous solutions of HPMC so as to satisfy the dosage amounts.
Note that, the “amount of mole/10 mL/kg” means as follows: for example “10 mmol/10 mL/kg” means that 10 mmol of a test compound per body-weight (1 kg) of a mouse was dispersed or dissolved in a solution (10 mL) for administration. The same applies hereinafter.
The solutions for administration prepared above were orally administered to mice (Balb/cA, male) not fasted each by use of an oral administration sonde.
The mice were anesthetized with isoflurane 0.5, 1, 2, 4 and 6 hours after administration and blood was taken from the facial vein by use of a specific needle (animal lancet) and a heparin-coated hematocrit tube.
The blood sampled was immediately centrifuged (13000 rpm, 2 minutes, 4° C.) to prepare the plasma samples. After proteins were removed from the plasma samples, the concentrations of the test compound in the plasma samples were measured by LC/MS/MS.
The value of “area under the curve” (AUC) of drug concentration in blood versus time was calculated using analysis software such as Phoenix (registered trademark) WinNonlin (registered trademark).
In Table 3, “Comparative Example 1” and “Comparative Example 2” represent the “compound (Br form) of Comparative Example 1” and the “compound (I form) of Comparative Example 2”, respectively. In Table 4, “Comparative Example 6” represents the “compound (C1 form) of Comparative Example 6”.

A172 = assay: Growth suppression activity in human tumor cell line; assay type: cell-based; details: A 172, 72 h; Human brain tumor, A172, 3 days
Experimental: (§1) Human tumor cell lines different in type were suspended in mediums, seeded in individual wells of a multi-well plate and cultured. On the day after initiation of culture, serially diluted solutions of a compound were added. Culture was carried out for further 3 days. Cells were counted by a CellTiter-Glo (manufactured by Promega KK) in accordance with the protocol recommended by Promega KK. Cell viability was calculated in accordance with the equation shown below and the concentration (IC50 (μM)) of the compound at which 50% of cell growth is inhibited was obtained.
(§2) T: Intensity of light emitted from a well containing a compound
(§3) C: Intensity of light emitted from a well containing no compound

A673 = assay: as above; assay type: cell-based; details: 72 h; Human bone tumor, A673, 3 days
Experimental: as §1, §2, §3

BC3 = assay: as above; assay type: cell-based; details: BC-3, 72 h; Human hematopoietic organ tumor, BC3, 3 days
Experimental: as §1, §2, §3

BCP1 = assay: as above; assay type: cell-based; details: BCP-1, 72 h; Human hematopoietic organ tumor, BCP1, 3 days
Experimental: as §1, §2, §3

CAPAN2 = assay: as above; assay type: cell-based; details: Capan-2, 72 h; Human pancreatic cancer, CAPAN2, 3 days
Experimental: as §1, §2, §3

CFPAC1 = assay: as above; assay type: cell-based; details: CFPAC-1, 72 h; Human pancreatic cancer, CFPAC1, 3 days
Experimental: as §1, §2, §3

DMS273 = assay: as above; assay type: cell-based; details: DMS-273, 72 h; Human lung cancer, DMS273, 3 days
Experimental: as §1, §2, §3

EBC1 = assay: as above; assay type: cell-based; details: EBC-1, 72 h; Human lung cancer, EBC1, 3 days
Experimental: as §1, §2, §3

H2126 = assay: as above; assay type: cell-based; details: NCI-H2126, 72 h; Human lung cancer, H2126, 3 days
Experimental: as §1, §2, §3

H2170 = assay: as above; assay type: cell-based; details: NCI-H2170, 72 h; Human lung cancer, H2170, 3 days
Experimental: as §1, §2, §3

HT1197 = assay: as above; assay type: cell-based; details: 72 h; human bladder cancer, HT1197, 3 days
Experimental: as §1, §2, §3

MCF7 = assay: as above; assay type: cell-based; details: 72 h; Human breast cancer, MCF7, 3 days
Experimental: as §1, §2, §3

MES01 = assay: as above; assay type: cell-based; details: 72 h; Human lung cancer, MES01, 3 days
Experimental: as §1, §2, §3

NUGC3 = assay: as above; assay type: cell-based; details: NUGC-3, 72 h; Human stomach cancer, NUGC3, 3 days
Experimental: as §1, §2, §3

A431 = assay: Growth suppression activity to human tumor cell line (Evaluation 2); assay type: cell-based; details: Human epidermoid carcinoma, A431, 3 days
Experimental: as §1, with “(nM))” for “(μM))”
as §2, §3

A549 = assay: as above; assay type: cell-based; details: A549, 72 h, Human lung cancer, A549, 3 days
Experimental: as §1, with “(nM))” for “(μM))”
as §2, §3

H1650 = assay: as above; assay type: cell-based; details: NCI-H1650, 72 h, Human lung cancer, H1650, 3 days
Experimental: as §1, with “(nM))” for “(μM))”
as §2, §3

H2122 = assay: as above; assay type: cell-based; details: NCI-H2122, 72 h, Human lung cancer, H2122, 3 days
Experimental: as §1, with “(nM))” for “(μM))”
as §2, §3

H358 = assay: as above; assay type: cell-based; details: NCI-H358, 72 h, Human lung cancer, H358, 3 days
Experimental: as §1, with “(nM))” for “(μM))”
as §2, §3

HCC827 = assay: as above; assay type: cell-based; details: Human lung cancer, HCC827, 3 days
Experimental: as §1, with “(nM))” for “(μM))”
as §2, §3

RKO = assay: as above; assay type: cell-based; details: 72 h, Human colorectal cancer, 3 days
Experimental: as §1, with “(nM))” for “(μM))”
as §2, §3

SK-BR-3 = assay: as above; assay type: cell-based; details: Human breast cancer, SK-BR-3, 3 days
Experimental: as §1, with “(nM))” for “(μM))”
as §2, §3

- AUC(0-t) [1]: 2.07 µM·h
- IC50 (A172): 0.14 µM
- IC50 (A673): 0.13 µM
- IC50 (BC3): 0.02 µM
- IC50 (BCP1): 0.11 µM
- IC50 (CAPAN2): 0.05 µM
- IC50 (CFPAC1): 0.11 µM
- IC50 (DMS273): 0.4 µM
- IC50 (EBC1): 0.06 µM
- IC50 (H2126): 0.11 µM
- IC50 (H2170): 0.26 µM
- IC50 (HT1197): 0.13 µM
- IC50 (MCF7): 0.08 µM
- IC50 (MES01): 0.41 µM
- IC50 (NUGC3): 0.07 µM
- IC50 (A431; Homo sapiens, A-431, 72 h): 0.032 µM
- IC50 (A431): 0.018 µM
- IC50 (A549): 0.014 µM
- IC50 (H1650): 0.008 µM
- IC50 (H2122): 0.009 µM
- IC50 (H358): 0.052 µM
- IC50 (HCC827; Homo sapiens, HCC827, 72 h): 0.228 µM
- IC50 (HCC827): 0.176 µM
- IC50 (RKO): 0.031 µM
- IC50 (SK-BR-3; Homo sapiens, SK-BR-3, 72 h): 0.026 µM
- IC50 (SK-BR-3): 0.023 µM
SMILES: Nc1ncnc2c1c(Br)cn2[C@@H]1O[C@H](CO)[C@@H](O)[C@@H]1F [Comparative Example 1, (2R,3R,4S,5R)-5-(4-amino-5-bromo-7H-pyrrolo[2,3-d]pyrimidin-7-yl)-4-fluoro-2-(hydroxymethyl) tetrahydrofuran-3-ol]
